Laboratory results taken from patent US20130244999A1, “Substituted Heterocyclic Compounds” (Incyte Corporation, priority 2008, published 2013).

molecular target: T1, histamine H4 receptor (Homo sapiens, UniProt Q9H3N8); assay: Inhibition of histamine H4 receptor (Table A1; H4 membrane binding assay); details: not given
T1 construct: expressed in transfected cells; host or cells: HEK293SFM cells (membrane preparation)
Description: Recombinant HEK293SFM cells expressing human H1, H2, H3, H4 or mouse H4 were harvested (Packard Filtermate Harvester) in ice-cold Tris-HCl, (50 mM, pH 7.5, Sigma) with protease inhibitors (Roche) and homogenized with a Polytron homogenizer. The homogenate was centrifuged for 5 minutes at 1000 g to remove nuclei and unbroken cells. The supernatant was centrifuged at 50000 g for 30 minutes, and the resulting pellet was re-suspended in ice-cold Tris-HCl (50 mM, pH 7.5). […] Nonspecific binding was determined by inclusion of 1000× unlabeled ligands. The bound radioactivity was separated by filtration through polyethyleneimine-treated GF/B filters (Perkin Elmer). The filters were washed eight times with ice-cold Tris-HCl (50 mM, pH 7.5), and radioactivity retained on the filters was measured by liquid scintillation counting. The binding data were evaluated with Prism. […]

T1 sequence (Q9H3N8 whole entry): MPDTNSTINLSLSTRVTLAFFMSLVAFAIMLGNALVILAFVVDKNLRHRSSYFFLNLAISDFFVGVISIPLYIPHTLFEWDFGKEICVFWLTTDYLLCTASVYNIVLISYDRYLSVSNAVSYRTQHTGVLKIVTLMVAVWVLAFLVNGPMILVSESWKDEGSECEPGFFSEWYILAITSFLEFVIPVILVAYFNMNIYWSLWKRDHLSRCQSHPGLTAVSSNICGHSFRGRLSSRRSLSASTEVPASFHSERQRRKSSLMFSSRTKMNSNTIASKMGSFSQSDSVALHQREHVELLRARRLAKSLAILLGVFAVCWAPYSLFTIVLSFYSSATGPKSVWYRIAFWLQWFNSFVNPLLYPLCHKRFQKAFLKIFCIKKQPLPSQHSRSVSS

In order of falling inhibition at 1 µM:
1. CC1Cc2ccc(-c3ccc(C(=O)N(C)C)nc3)cc2CN1c1cc(N2CCN(C)CC2)nc(N)n1 (single isomer, unassigned) [Example 50 B, 5-(2-(2-amino-6-(4-methylpiperazin-1-yl)pyrimidin-4-yl)-3-methyl-1,2,3,4-tetrahydroisoquinolin-7-yl)-N,N-dimetitylpicolinamide]  78%
2. CCNC(=O)c1cc(-c2ccc3c(c2)CN(c2cc(N4CCN(C)CC4)nc(N)n2)C(C)C3)cn1C (single isomer, unassigned) [Example 88B, 4-{2-[2-Amino-6-(4-methylpiperazin-1-yl)pyrimidin-4-yl]-3-methyl-1,2,3,4-tetrahydroisoquinolin-7-yl}-N-ethyl-1-methyl-1H-pyrrole-2-carboxamide]  74%
3. CC(C)NC(=O)c1cc(-c2ccc3c(c2)CN(c2cc(N4CCN(C)CC4)nc(N)n2)C(C)C3)cn1C (single isomer, unassigned) [Example 90B, 4-{2-[2-Amino-6-(4-methylpiperazin-1-yl)pyrimidin-4-yl]-3-methyl-1,2,3,4-tetrahydroisoquinolin-7-yl}-N-isopropyl-1-methyl-1H-pyrrole-2-carboxamide]  72%
4. CCOC(=O)Nc1ccc2c(c1)CN(c1cc(N3CCN(C)CC3)nc(N)n1)CC2 [Example 34, Ethyl {2-[2-amino-6-(4-methylpiperazin-1-yl)pyrimidin-4-yl]-1,2,3,4-tetrahydroisoquinolin-7-yl}carbamate]  69%
5. CC1Cc2ccc(-c3cnn(C4CCS(=O)(=O)C4)c3)cc2CN1c1cc(N2CCN(C)CC2)nc(N)n1 (stereo not drawn) [Example 98B, 4-[7-[1-(1,1-dioxidotetrahydro-3-thienyl)-1H-pyrazol-4-yl]-3-methyl-3,4-dihydroisoquinolin-2(1H)-yl]-6-(4-methylpiperazin-1-yl)pyrimidin-2-amine]  56%

same assay, conditions: histamine H4 receptor; "> a" = exceeds experiment limit

In order of rising IC50:
1. CC1Cc2ccc(-c3ccnc(C(=O)N(C)CCN(C)C)c3)cc2CN1c1cc(N2CCN(C)CC2)nc(N)n1 (single isomer, unassigned) [Example 68B, 4-{2-[2-amino-6-(4-methylpiperazin-1-yl)pyrimidin-4-yl]-3-methyl-1,2,3,4-tetrahydroisoquinolin-7-yl}-N-[2-(dimethylamino)ethyl]-N-methylpyridine-2-carboxamide]  32 nM
2. CC1Cc2ccc(-c3cnn(CCO)c3)cc2CN1c1cc(N2CCN(C)CC2)nc(N)n1 (single isomer, unassigned) [Example 110, 2-(4-{2-[2-Amino-6-(4-methylpiperazin-1-yl)pyrimidin-4-yl]-3-methyl-1,2,3,4-tetrahydroisoquinolin-7-yl}-1H-pyrazol-1-yl)ethanol]  35 nM
3. CN1CCN(c2cc(N3CCc4ccc(N5CCC(c6ccc(C(N)=O)cc6)CC5)cc4C3)nc(N)n2)CC1 [Example 40, 4-(1-{2-[2-Amino-6-(4-methylpiperazin-1-yl)pyrimidin-4-yl]-1,2,3,4-tetrahydroisoquinolin-7-yl}piperidin-4-yl)benzamide]  39 nM
4. CC1Cc2ccc(-c3cnn(C4CCCC4)c3)cc2CN1c1cc(N2CCN(C)CC2)nc(N)n1 (single isomer, unassigned) [Example 115, 4-[7-(1-Cyclopentyl-1H-pyrazol-4-yl)-3-methyl-3,4-dihydroisoquinolin-2(1H)-yl]-6-(4-methylpiperazin-1-yl)pyrimidin-2-amine]  40 nM
5. CNC(=O)c1ccc(-c2ccc3c(c2)CN(c2cc(N4CCN(C)CC4)nc(N)n2)C(C)C3)cn1 (stereo not drawn) [Example 49, 5-{2-[2-Amino-6-(4-methylpiperazin-1-yl)pyrimidin-4-yl]-3-methyl-1,2,3,4-tetrahydroisoquinolin-7-yl}-N-methylpyridine-2-carboxamide]  42 nM
6. CC1Cc2ccc(-c3cnn(CC4(C#N)CC4)c3)cc2CN1c1cc(N2CCN(C)CC2)nc(N)n1 (single isomer, unassigned) [Example 97A, 1-[(4-{2-[2-amino-6-(4-methylpiperazin-1-yl)pyrimidin-4-yl]-3-methyl-1,2,3,4-tetrahydroisoquinolin-7-yl}-1H-pyrazol-1-yl)methyl]cyclopropanecarbonitrile]  44 nM
7. CC1Cc2ccc(-c3ccc(C(=O)N(C)CCN(C)C)nc3)cc2CN1c1cc(N2CCN(C)CC2)nc(N)n1 (single isomer, unassigned) [Example 52A, 5-{2-[2-amino-6-(4-methylpiperazin-1-yl)pyrimidin-4-yl]-3-methyl-1,2,3,4-tetrahydroisoquinolin-7-yl}-N-[2-(dimethylamino)ethyl]-N-methylpyridine-2-carboxoynide]  46 nM
8. CC1Cc2ccc(-c3cc(C(=O)NC4CC4)n(C)c3)cc2CN1c1cc(N2CCN(C)CC2)nc(N)n1 (single isomer, unassigned) [Example 91A, 4-{2-[2-Amino-6-(4-methylpiperazin-1-yl)pyrimidin-4-yl]-3-methyl-1,2,3,4-tetrahydroisoquinolin-7-yl}-N-cyclopropyl-1-methyl-1H-pyrrole-2-carboxamide]  49 nM
9. CNC(=O)c1ccc(C2CCN(c3ccc4c(c3)CN(c3cc(N5CCN(C)CC5)nc(N)n3)CC4)CC2)cc1 [Example 39, 4-(1-{2-[2-Amino-6-(4-methylpiperazin-1-yl)pyrimidin-4-yl]-1,2,3,4-tetrahydroisoquinolin-7-yl}piperidin-4-yl)-N-methylbenzamide]  51 nM
10. CNC(=O)c1cnc(-c2ccc3c(c2)CN(c2cc(N4CCN(C)CC4)nc(N)n2)C(C)C3)s1 (stereo not drawn) [Example 133, 2-{2-[2-amino-6-(4-methylpiperazin-1-yl)pyrimidin-4-yl]-3-methyl-1,2,3,4-tetrahydroisoquinolin-7-yl}-N-methyl-1,3-thiazole-5-carboxamide]  59 nM
11. CN1CCN(c2cc(N3CCc4ccc(-c5cnc(Cl)c(F)c5)cc4C3)nc(N)n2)CC1 [Example 6, 4-[7-(6-Chloro-5-fluoropyridin-3-yl)-3,4-dihydroisoquinolin-2(1H)-yl]-6-(4-methylpiperazin-1-yl)pyrimidin-2-amine]  61 nM
12. CC1Cc2ccc(-c3cnn(CC4CCC4)c3)cc2CN1c1cc(N2CCN(C)CC2)nc(N)n1 (single isomer, unassigned) [Example 106, 4-[7-[1-(cyclobutylmethyl)-1H-pyrazol-4-yl]-3-methyl-3,4-dihydroisoquinolin-2(1H)-yl]-6-(4-methylpiperazin-1-yl)pyrimidin-2-amine]  63 nM
13. CN1CCN(c2cc(N3CCc4ccc(-c5ccc(C(=O)NCc6ccccn6)nc5)cc4C3)nc(N)n2)CC1 [Example 18, 5-{2-[2-Amino-6-(4-methylpiperazin-1-yl)pyrimidin-4-yl]-1,2,3,4-tetrahydroisoquinolin-7-yl}-N-(pyridin-2-ylmethyl)pyridine-2-carboxamide]  65 nM
14. CNC(=O)c1ccc(-c2ccc3c(c2)CN(c2cc(N4CCN(C)CC4)nc(N)n2)C(CO)C3)cn1 (single isomer, unassigned) [Example 81A, 5-[2-[2-amino-6-(4-methylpiperazin-1-yl)pyrimidin-4-yl]-3-(hydroxymethyl)-1,2,3,4-tetrahydroisoquinolin-7-yl]-N-methylpyridine-2-carboxamide]  75 nM
15. CC1Cc2ccc(C3=CCN(c4cc(C#N)ccn4)CC3)cc2CN1c1cc(N2CCN(C)CC2)nc(N)n1 (stereo not drawn) [Example 137, 4-{2-[2-Amino-6-(4-methylpiperazin-1-yl)pyrimidin-4-yl]-3-methyl-1,2,3,4-tetrahydroisoquinolin-7-yl}-3,6-dihydro-2H-1,2′-bipyridine-4′-carbonitrile]  84 nM
16. CN1CCN(c2cc(N3CCc4ccc(-c5ccc(C(=O)NCC(C)(C)O)nc5)cc4C3)nc(N)n2)CC1 [Example 19, 5-{2-[2-Amino-6-(4-methylpiperazin-1-yl)pyrimidin-4-yl]-1,2,3,4-tetrahydroisoquinolin-7-yl}-N-(2-hydroxy-2-methylpropyl)pyridine-2-carboxamide]  110 nM
17. CN1CCN(c2cc(N3CCc4cc(F)c(-c5cccc(C(=O)N(C)C)c5)cc4C3)nc(N)n2)CC1 [Example 128, 3-{2-[2-Amino-6-(4-methylpiperazin-1-yl)pyrimidin-4-yl]-6-fluoro-1,2,3,4-tetrahydroisoquinolin-7-yl}-N,N-dimethylbenzamide]  148 nM
18. CC1Cc2ccc(-c3ccc(C(=O)N4CC[C@@H](O)C4)nc3)cc2CN1c1cc(N2CCN(C)CC2)nc(N)n1 (single isomer, unassigned) [Example 56B]  172 nM
19. CC1Cc2ccc(-c3ccc(C(=O)N4CC(O)C4)cn3)cc2CN1c1cc(N2CCN(C)CC2)nc(N)n1 (single isomer, unassigned) [Example 73, 1-[(6-{2-[2-Amino-6-(4-methylpiperazin-1-yl)pyrimidin-4-yl]-3-methyl-1,2,3,4-tetrahydroisoquinolin-7-yl}pyridin-3-yl)carbonyl]azetidin-3-ol]  195 nM
20. CN1CCN(c2cc(N3CCc4ccc(Oc5ccc(C#N)c(Cl)c5)cc4C3)nc(N)n2)CC1 [Example 22, 4-({2-[2-Amino-6-(4-methylpiperazin-1-yl)pyrimidin-4-yl]-1,2,3,4-tetrahydroisoquinolin-7-yl}oxy)-2-chlorobenzonitrile]  367 nM
21. Cc1cccc(Nc2ccc3c(c2)CN(c2cc(N4CCN(C)CC4)nc(N)n2)CC3)n1 [Example 16, 2-[2-Amino-6-(4-methylpiperazin-1-yl)pyrimidin-4-yl]-N-(6-methylpyridin-2-yl)-1,2,3,4-tetrahydroisoquinolin-7-amine]  543 nM
22. CN1CCN(c2cc(N3CCc4ccc(N5CCC(O)(c6ccccc6)CC5)cc4C3)nc(N)n2)CC1 [Example 37, 1-{2-[2-Amino-6-(4-methylpiperazin-1-yl)pyrimidin-4-yl]-1,2,3,4-tetrahydroisoquinolin-7-yl}-4-phenylpiperidin-4-ol]  579 nM
